Test results published in US9428759B2, “Methods for increasing the production of phenolic compounds from Theobroma cacao” (Casa Luker S.A., priority 2012, dated 2016).

Tested on: cocoa callus
Assay: Induction of cocoa callus development with 2,4-D and chitosan
Assay type: cell-based, Theobroma cacao
Source text: After surface sterilization, seeds (grains) were subjected to induction of calluses in specific media for tissue cultures as follows (see Murashige, T. and Skoog, F. “A revised medium for rapid growth and bioassays with tobacco tissue cultures,” Physiologia Plantarum, 1962, Vol 15: 473-495). Disinfected cocoa seeds were submitted to extraction of embryonic cells under aseptic conditions, and transferred to growth medium (MS), which contains mineral salts and microelements, and which is enriched with myo-inositol (100 mg/L) and sucrose (30 g/L), with gellan gum (2.4 g/L) as a gelling agent. The cocoa explants were incubated under dark conditions for 7 days at 22-24° C. After the incubation period, the cocoa embryonic cells were subcultured in nutrient media with the same types of ingredients as the media mentioned above, but containing different concentrations of auxins (growth hormones 2,4-D), using […] (0, 0.1, 0.5, 1.0 and 2.0 mg/L). […]
Different concentrations including 0, 0.1, 0.2, 0.5, 1, 2, 4, mg/L of kinetin were evaluated. Also, kinetin was used with or without 2,4-D at concentration of 2 mg/L. The growth of calluses was evaluated after 100 days, and different parameters were used to determine the effects of the growth regulators on callus growth including % of disaggregation and height and diameter of the callus. […]

## O=C(O)COc1ccc(Cl)cc1Cl [2,4 D, 2,4-dichlorophenoxyacetic acid]
2 mg/L, all three cocoa phenotypes, early stages of development
  growth in cocoa calluses: induced larger growth
2,4-D 2 mgL^−1, initial callus development, three cocoa phenotypes
  % of Callus Development: 22.9167%
